# Data reported in patent publication US10399940B2, “Substituted pyrrolidines and methods of use” (AbbVie S.à.r.l., priority 2016, dated 2019).
# Like-named read-outs stand apart in the source and are kept apart here.
# Molecular target: T1, F508delCFTR (Homo sapiens, UniProt P13569, DEL508-508)
# T1 construct: expressed in transfected cells; host or cells: CFBE41o- (human lung derived epithelial cell line), doxycycline-inducible expression
# Experiment: Cell Surface Expression-Horse Radish Peroxidase (CSE-HRP) assay
# Format: cell-based
# Settings: CFBE41o-F508delCFTR-HRP cells; for Maximum % activity (with co-corrector): with co-corrector (2 μM); for Maximum % activity (with co-corrector) / Maximum % activity (without co-corrector): normalized to on-plate positive control, highest concentration 20 μM
# How it was run: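 Surface F508delCFTR-HRP was read by luminol luminescence after 18–24 h compound exposure at 33 °C, without or with 2 μM co-corrector. Doses were eight 3-fold steps from 20 μM, in doxycycline-induced (0.5 μg/mL, 72 h) CFBE41o- cells. % activity was scaled to the on-plate 2 μM positive control minus DMSO; EC50 came from a variable-slope sigmoid fit.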
# [1] = test compound without co-corrector, 18-24 hours at 33° C., read-out: EC50 (without co-corrector)
# [2] = with co-corrector (2 μM of 3-[(2R,4R)-4-({[1-(2,2-difluoro-1,3-benzodioxol-5-yl)cyclopropyl]carbonyl}amino)-7-methoxy-3,4-dihydro-2H-chromen-2-yl]benzoic acid), read-out: EC50 (with co-corrector)
# T1 sequence (P13569 with tags, fused parts or gaps DEL508-508): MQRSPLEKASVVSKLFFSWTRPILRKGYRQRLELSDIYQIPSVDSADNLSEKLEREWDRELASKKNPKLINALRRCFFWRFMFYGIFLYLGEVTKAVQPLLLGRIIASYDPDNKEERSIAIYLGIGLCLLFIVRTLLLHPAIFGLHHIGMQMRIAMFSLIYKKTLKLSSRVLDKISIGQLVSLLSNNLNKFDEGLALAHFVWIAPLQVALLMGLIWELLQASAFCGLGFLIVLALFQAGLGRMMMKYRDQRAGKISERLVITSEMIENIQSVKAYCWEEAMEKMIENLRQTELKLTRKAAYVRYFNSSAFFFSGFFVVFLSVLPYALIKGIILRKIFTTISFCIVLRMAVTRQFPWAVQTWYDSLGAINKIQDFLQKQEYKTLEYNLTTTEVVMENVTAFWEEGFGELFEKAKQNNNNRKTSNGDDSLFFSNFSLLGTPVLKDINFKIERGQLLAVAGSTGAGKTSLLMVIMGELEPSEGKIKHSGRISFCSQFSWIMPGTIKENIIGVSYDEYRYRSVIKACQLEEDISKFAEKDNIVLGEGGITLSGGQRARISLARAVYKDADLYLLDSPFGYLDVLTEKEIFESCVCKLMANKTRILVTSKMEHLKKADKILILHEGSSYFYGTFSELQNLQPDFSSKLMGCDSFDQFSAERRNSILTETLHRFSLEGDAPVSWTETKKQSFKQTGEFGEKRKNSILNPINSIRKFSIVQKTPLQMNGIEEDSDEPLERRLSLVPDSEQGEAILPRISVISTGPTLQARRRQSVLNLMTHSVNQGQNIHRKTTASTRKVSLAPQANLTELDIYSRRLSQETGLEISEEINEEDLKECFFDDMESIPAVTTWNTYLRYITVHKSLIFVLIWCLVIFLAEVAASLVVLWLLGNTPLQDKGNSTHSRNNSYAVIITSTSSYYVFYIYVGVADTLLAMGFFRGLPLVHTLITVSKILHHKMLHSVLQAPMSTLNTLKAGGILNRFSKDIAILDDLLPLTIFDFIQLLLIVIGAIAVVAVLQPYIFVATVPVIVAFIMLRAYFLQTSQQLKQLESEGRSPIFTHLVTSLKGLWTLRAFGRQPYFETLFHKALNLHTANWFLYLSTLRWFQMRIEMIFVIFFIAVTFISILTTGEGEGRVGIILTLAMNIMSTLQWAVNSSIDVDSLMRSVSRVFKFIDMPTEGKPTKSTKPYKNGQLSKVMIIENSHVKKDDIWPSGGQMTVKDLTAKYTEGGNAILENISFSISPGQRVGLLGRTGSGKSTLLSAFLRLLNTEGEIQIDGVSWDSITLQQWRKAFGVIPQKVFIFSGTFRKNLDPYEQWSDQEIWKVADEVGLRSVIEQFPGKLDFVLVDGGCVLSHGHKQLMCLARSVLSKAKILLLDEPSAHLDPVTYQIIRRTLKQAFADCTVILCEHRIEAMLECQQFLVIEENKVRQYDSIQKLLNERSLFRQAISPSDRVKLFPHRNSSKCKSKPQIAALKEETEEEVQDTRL
EC50 [1],EC50 [2],Maximum % activity (with co-corrector),Maximum % activity (without co-corrector),SMILES
1000 to 10000 nM,1000 to 10000 nM,+++ (≥350),+++ (≥200),"COc1nc2cc(C)cc(C)c2cc1CO[C@H]1[C@H](C(C)(C)C)[C@@H](C(=O)O)N(C(=O)C2CCCCC2)[C@H]1c1cccnc1OC(C)C [Example 252, (2S,3R,4S,5S)-3-tert-butyl-1-(cyclohexanecarbonyl)-4-[(2-methoxy-5,7-dimethylquinolin-3-yl)methoxy]-5-{2-[(propan-2-yl)oxy]pyridin-3-yl}pyrrolidine-2-carboxylic acid]"
1000 to 10000 nM,1000 to 10000 nM,+++ (≥350),+++ (≥200),"COc1nc2cc(C)cc(C)c2cc1CO[C@H]1[C@H](C(C)(C)C)[C@@H](C(=O)O)N(C(=O)OC(C)C)[C@H]1c1cccnc1OC(C)C [Example 253, (2S,3R,4S,5S)-3-tert-butyl-4-[(2-methoxy-5,7-dimethylquinolin-3-yl)methoxy]-1-{[(propan-2-yl)oxy]carbonyl}-5-{2-[(propan-2-yl)oxy]pyridin-3-yl}pyrrolidine-2-carboxylic acid]"
1000 to 10000 nM,< 1000 nM,+++ (≥350),+++ (≥200),"CCc1ccccc1[C@H]1[C@@H](OCc2cc3ccccc3nc2OC)[C@H](C(C)(C)C)[C@@H](C(=O)O)N1C(=O)[C@@H]1CCCCO1 [Example 254, (2S,3R,4S,5S)-3-tert-butyl-5-(2-ethylphenyl)-4-[(2-methoxyquinolin-3-yl)methoxy]-1-[(2S)-oxane-2-carbonyl]pyrrolidine-2-carboxylic acid]"
> 10000 nM,1000 to 10000 nM,++ (≥150 and <350),+ (<100),"Cc1ccccc1[C@H]1[C@@H](OCc2nc3ccccc3n2C)[C@H](C(C)(C)C)[C@@H](C(=O)O)N1C(=O)[C@@H]1CCCCO1 [Example 255, (2S,3R,4S,5S)-3-tert-butyl-4-[(1-methyl-1H-benzimidazol-2-yl)methoxy]-5-(2-methylphenyl)-1-[(2S)-oxane-2-carbonyl]pyrrolidine-2-carboxylic acid]"
1000 to 10000 nM,< 1000 nM,+++ (≥350),+ (<100),"COc1ncc(C2CCC2)cc1CO[C@H]1[C@H](C(C)(C)C)[C@@H](C(=O)O)N(C(=O)C2CCCCC2)[C@H]1c1cccc2c1OC(C)(C)C2 [Example 256, (2S,3R,4S,5S)-3-tert-butyl-4-[(5-cyclobutyl-2-methoxypyridin-3-yl)methoxy]-1-(cyclohexanecarbonyl)-5-(2,2-dimethyl-2,3-dihydro-1-benzofuran-7-yl)pyrrolidine-2-carboxylic acid]"
< 1000 nM,< 1000 nM,+++ (≥350),+++ (≥200),"COc1ncc(C(F)(F)F)cc1CO[C@H]1[C@H](C(C)(C)OC)[C@@H](C(=O)O)N(C(=O)[C@@H]2CCCCO2)[C@H]1c1ccccc1C(C)C [Example 260, (2S,3R,4S,5S)-3-(2-methoxypropan-2-yl)-4-{[2-methoxy-5-(trifluoromethyl)pyridin-3-yl]methoxy}-1-[(2S)-oxane-2-carbonyl]-5-[2-(propan-2-yl)phenyl]pyrrolidine-2-carboxylic acid]"
> 10000 nM,1000 to 10000 nM,++ (≥150 and <350),+ (<100),"COc1ccc(C(F)(F)F)cc1[C@@](O)(CO)CO[C@H]1[C@H](C(C)(C)C)[C@@H](C(=O)O)N(C(=O)[C@@H]2CCCCO2)[C@H]1c1ccccc1C [Example 263, (2S,3R,4S,5S)-3-tert-butyl-4-{(2R)-2,3-dihydroxy-2-[2-methoxy-5-(trifluoromethyl)phenyl]propoxy}-5-(2-methylphenyl)-1-[(2S)-oxane-2-carbonyl]pyrrolidine-2-carboxylic acid]"
< 1000 nM,< 1000 nM,+++ (≥350),++ (≥100 and <200),"COc1ncc(C2CCC2)cc1CO[C@H]1[C@H](C(C)(C)C)[C@@H](C(=O)O)N(C(=O)OC(C)C(F)(F)F)[C@H]1c1cccnc1OC(C)C (stereo partly drawn) [Example 265, (2S,3R,4S,5S)-3-tert-butyl-4-[(5-cyclobutyl-2-methoxypyridin-3-yl)methoxy]-5-{2-[(propan-2-yl)oxy]pyridin-3-yl}-1-{[(1,1,1-trifluoropropan-2-yl)oxy]carbonyl}pyrrolidine-2-carboxylic acid]"
1000 to 10000 nM,< 1000 nM,+++ (≥350),++ (≥100 and <200),"COc1ncc(C2CCC2)cc1CO[C@H]1[C@H](C(C)(C)C)[C@@H](C(=O)O)N(C(=O)O[C@H](C)C(F)(F)F)[C@H]1c1cccnc1OC(C)C [Example 266, (2S,3R,4S,5S)-3-tert-butyl-4-[(5-cyclobutyl-2-methoxypyridin-3-yl)methoxy]-5-{2-[(propan-2-yl)oxy]pyridin-3-yl}-1-({[(2R)-1,1,1-trifluoropropan-2-yl]oxy}carbonyl)pyrrolidine-2-carboxylic acid]"

# Further lines, the compound ahead of its results:
SMILES,EC50 [1],EC50 [2],Maximum % activity (with co-corrector),Maximum % activity (without co-corrector)
"COc1ccc(C(C)(C)C)cc1CO[C@H]1[C@H](C(C)(C)C)[C@@H](C(=O)O)N(C(=O)C2CCCCC2)[C@H]1c1cccnc1OC(C)C [Example 251, (2S,3R,4S,5S)-3-tert-butyl-4-[(5-tert-butyl-2-methoxyphenyl)methoxy]-1-(cyclohexanecarbonyl)-5-{2-[(propan-2-yl)oxy]pyridin-3-yl}pyrrolidine-2-carboxylic acid]",< 1000 nM,< 1000 nM,+++ (≥350),+++ (≥200)
"COc1ncc(C(F)(F)F)cc1CO[C@H]1[C@H](C(C)(C)C)[C@@H](C(=O)O)N(C(=O)C2CCCCC2)[C@H]1c1cccc2c1OC(C)(C)C2 [Example 257, (2S,3R,4S,5S)-3-tert-butyl-1-(cyclohexanecarbonyl)-5-(2,2-dimethyl-2,3-dihydro-1-benzofuran-7-yl)-4-{[2-methoxy-5-(trifluoromethyl)pyridin-3-yl]methoxy}pyrrolidine-2-carboxylic acid]",< 1000 nM,< 1000 nM,++ (≥150 and <350),+ (<100)
"COc1ncc(C(F)(F)F)cc1CO[C@H]1[C@H](C(C)(C)OC)[C@@H](C(=O)O)N(C(=O)C2CCCCC2)[C@H]1c1ccccc1C(C)C [Example 258, (2S,3R,4S,5S)-1-(cyclohexanecarbonyl)-3-(2-methoxypropan-2-yl)-4-{[2-methoxy-5-(trifluoromethyl)pyridin-3-yl]methoxy}-5-[2-(propan-2-yl)phenyl]pyrrolidine-2-carboxylic acid]",< 1000 nM,< 1000 nM,+++ (≥350),+++ (≥200)
"COc1ncc(C(F)(F)F)cc1CO[C@H]1[C@H](C(C)(C)OC)[C@@H](C(=O)O)N(C(=O)OC(C)C)[C@H]1c1ccccc1C(C)C [Example 259, (2S,3R,4S,5S)-3-(2-methoxypropan-2-yl)-4-{[2-methoxy-5-(trifluoromethyl)pyridin-3-yl]methoxy}-1-{[(propan-2-yl)oxy]carbonyl}-5-[2-(propan-2-yl)phenyl]pyrrolidine-2-carboxylic acid]",< 1000 nM,< 1000 nM,+++ (≥350),+++ (≥200)
"COc1ccc(C(F)(F)F)cc1C(C)CO[C@H]1[C@H](C(C)(C)C)[C@@H](C(=O)O)N(C(=O)[C@@H]2CCCCO2)[C@H]1c1ccccc1C (stereo partly drawn) [Example 261, (2S,3R,4S,5S)-3-tert-butyl-4-{2-[2-methoxy-5-(trifluoromethyl)phenyl]propoxy}-5-(2-methylphenyl)-1-[(2S)-oxane-2-carbonyl]pyrrolidine-2-carboxylic acid]",1000 to 10000 nM,< 1000 nM,+++ (≥350),+++ (≥200)
"COc1ccc(C(F)(F)F)cc1[C@](O)(CO)CO[C@H]1[C@H](C(C)(C)C)[C@@H](C(=O)O)N(C(=O)[C@@H]2CCCCO2)[C@H]1c1ccccc1C [Example 262, (2S,3R,4S,5S)-3-tert-butyl-4-{(2S)-2,3-dihydroxy-2-[2-methoxy-5-(trifluoromethyl)phenyl]propoxy}-5-(2-methylphenyl)-1-[(2S)-oxane-2-carbonyl]pyrrolidine-2-carboxylic acid]",1000 to 10000 nM,1000 to 10000 nM,++ (≥150 and <350),+ (<100)
"COc1ccc(C(F)(F)F)cc1C(=O)CO[C@H]1[C@H](C(C)(C)C)[C@@H](C(=O)O)N(C(=O)[C@@H]2CCCCO2)[C@H]1c1ccccc1C [Example 264, (2S,3R,4S,5S)-3-tert-butyl-4-{2-[2-methoxy-5-(trifluoromethyl)phenyl]-2-oxoethoxy}-5-(2-methylphenyl)-1-[(2S)-oxane-2-carbonyl]pyrrolidine-2-carboxylic acid]",1000 to 10000 nM,1000 to 10000 nM,+++ (≥350),+ (<100)
